# “Also recorded” adds a separate entry of the source. Where two headings read alike, the source gives them in different places. Bridge positions count the residues as written; N and C are the ends. Ends that are not written are not given here.
# Columns and labels:
# MSCs from an aged donor = assay: p-γ-H2AX DNA double-strand break repair foci immunostaining; format: cell-based, human; settings: for p-γ-H2AX foci, treatment of static control cells vs. static treatment alone: 4 hours static, 3 μM GsMTx4, 2 μM Dooku 1
# Experimental: Immunocytochemical staining on silicone membranes. Following the treatments, the cells were fixed in 4% paraformaldehyde in PBS for 10 minutes followed by washing and permeabilization with 0.1% Triton X-100 PBS for 5 minutes. Next, samples were blocked with PBS containing 5% FBS and 1% BSA for 40 minutes. After washing, cells were incubated with primary antibodies (see Table 2 for specific antibodies and concentrations) in PBS with 1% BSA overnight at 4° C. The samples were then washed twice in PBS with 1% BSA and incubated with secondary antibodies in PBS with 1% BSA for 2 hours in a light protected environment. Cells treated with extensive washes with PBS with 1% BSA prior to mounting in anti-fade media (Vector Laboratories, Inc.). The samples were then imaged using confocal microscopy with a LSM 710 laser scanning confocal microscope (Carl Zeiss, Inc.).
# p-γ-H2AX Foci Analysis. Following confocal imaging, images were analyzed with FIJI software to count p-γ-H2AX histone foci. Three-dimensional image stacks were maximum intensity projected to generate two-dimensional images with 12-bit range of 0-4095. Background signal outside of nuclei boundaries was measured and subtracted from the image. Individual cell nuclei regions of interest were selected, and an intensity threshold of 300 bits was applied. The Analyze Particle plugin was applied to count the p-γ-H2AX foci in each nucleus, with a minimum particle size of 0.5 μm applied. At least 100 individual cell nuclei were analyzed for each treatment group to calculate the mean foci count per cell, mean foci count per nuclear area, and standard errors.
# (§1) Conditioning of hMSCs using biochemical factors. For mechanistic experiments involving chemical factors and biological inhibitors, cells were incubated with the chemical treatments as shown in Table 3. The cells were treated with mechanical loading for 4 hours/day under brachial waveform at 0.1 Hz and 7.5% maximum strain or cultured under static conditions. The culture media containing the treatments were replaced on day 3 and day 5 for all 7-day treatments.
# aged MSCs = assay: β-Galactosidase staining of senescent cell phenotypes; format: cell-based, human; settings: 5 mM NAC or 5 μM KU55933, with or without brachial loading; vs. static control
# Experimental: Conditioning of hMSCs using biochemical factors. For mechanistic experiments involving chemical factors and biological inhibitors, cells were incubated with the chemical treatments as shown in Table 3. The cells were treated with mechanical loading for 4 hours/day under brachial waveform at 0.1 Hz and 7.5% maximum strain or cultured under static conditions. The culture media containing the treatments were replaced on day 3 and day 5 for all 7-day treatments. β-Galactosidase Analysis. Following the treatments, cell culture media was removed, and cells were washed once with PBS. Cells were fixed and stained for β-Galactosidase following the protocol of the Senescence β-Galactosidase Staining Kit (Cell Signaling Technologies). Following staining, cells were stored with 70% glycerol and imaged using a light microscope (Meiji, Inc.). Images were post-processed in Adobe Photoshop to increase image contrast and visibility of β-Galactosidase+ cells. Total cells and β-Galactosidase+ cells were manually counted in FIJI, with at least 1,000 cells counted per treatment group.
# [1] = system: MSCs from an aged donor one; assay: Western blotting of protein expression after treatment of MSCs; format: cell-based, human; settings: for SIRT6 expression (Western blotting): brachial+NAC (5 mM) or KU55933 (5 μM) treatment; for DNA damage repair protein KU80 expression (Western blotting): brachial+NAC (5 mM) or brachial+KU55933 (5 μM), compared to control groups
# Experimental: (§2) Application of biomechanical treatment. Mechanical strain was applied to cell culture using a high throughput system described previously (Lee et al., 2013; Lee & Baker, 2015; Lee et al., 2020). Briefly, cells are cultured on custom made plates that are mounted on a system that applies strain. The cell culture plates were comprised of silicone membranes (0.005″ thickness; Specialty Manufacturing, Inc.) that are sandwiched between two plates, with silicone rubber gaskets at the interfaces to prevent leaking. These cell culture membranes are UV sterilized and coated with 50 μg/mL fibronectin overnight at 37° C. to allow cell adhesion. After cell attachment, the plates are mounted on to the top plate of the system using screws. To apply mechanical strain, a platen with 36 Teflon pistons is moved into the cell culture membrane. The motion is driven by a hygienically sealed, voice coil-type linear motor (Copley Controls). The platen is stabilized using six motion rails mounted with linear motion bearings. The hygienically sealed motor housing has chilled water running through in order to prevent overheating during operation. Unless otherwise specified, loading was applied for 4 hours per day for 7 days with or without 1 μm the EGFR/ErbB-2/ErbB-4 Inhibitor (CAS 881001-19-0; Table 3).
# Cell lysis and immunoblotting. Following the treatments, the cells were lysed in 20 mM Tris with 150 mM NaCl, 1% Triton X-100, 0.1% SDS, 2 mM sodium orthovandate, 2 mM PMSF, 50 mM NaF and a protease inhibitor cocktail (Roche, Inc.). The proteins were separated on a NuPAGE 10% bis-tris midi gel (Novex) and transferred to nitrocellulose membrane using iBlot transfer stack (Novex). The membranes were blocked for one hour in 5% non-fat milk in PBS with 0.01% tween-20 (PBST). After washing twice in PBST, cells were incubated with primary antibodies (Table 1) overnight in 1% non-fat milk at 4° C. The membranes were washed with PBST and incubated at room temperature for two hours with secondary antibody. The membrane was treated with chemiluminescent substrate (SuperSignal West Femto; Thermo Fisher Scientific, Inc.) then imaged using a digital imaging system (Cell Biosciences, Inc.).
# as §1
# MSCs from aged donors = assay: BrdU proliferation assay (DNA synthesis) after mechanical and chemical treatment; format: cell-based, human; settings: for DNA synthesis (BrdU assay): co-treatment with brachial loading, 5 μM KU55933 or 5 mM NAC, aged donor MSCs, vs. static control
# Experimental: Cell lines and cell culture. Human mesenchymal stem cells (Promocell) were cultured in low glucose DMEM medium supplemented with 15% fetal bovine serum, L-glutamine and penicillin/streptomycin. Following trypsinization, cells were seeded on the membranes at 20,000 cells per cm^2 before mechanical loading. The cells were used between passages 4-6, unless otherwise specified. The MSCs were derived from a donor 1, unless otherwise specified. A subset of the studies were performed using MSCs from donor 2, or donor 3, or donor 4. A subset of the studies used MSCs derived from a young, healthy donor. Human umbilical vein endothelial cells (HUVECs; PromoCell GmbH) were cultured in MCDB 131 medium supplemented with 7.5% fetal bovine serum, L-glutamine and penicillin/streptomycin and EGM-2 SingleQuot Kit (Thermo Fisher Scientific, Inc.). All cells were cultured in an incubator at 37° C. under a 5% CO2 atmosphere.
# as §2, with “The hygienically sealed motor housing has chilled water running through in order to prevent overheating during operation. Unless otherwise specified, loading was applied for 4 hours per day for 7 days with or without 1 μm the EGFR/ErbB-2/ErbB-4 Inhibitor (CAS 881001-19-0; Table 3).” left out
# BrdU Proliferation Assay. […] Absorbance was read at 450 nm using a FlexStation-3 plate reader (Molecular Devices). […]
# MSCs from young donors [2] = settings: 1 μM inhibitor as cotreatment with brachial loading, tube formation assay, cited from earlier work
# MSCs from young donors [3] = settings: 1 μM inhibitor as cotreatment with brachial loading; cited from earlier work
# [4] = system: MSCs from three young, healthy donors; assay: RNA-seq analysis of senescence-related gene sets; format: cell-based, human; settings: brachial loading and E/E inhibitor; young donor MSCs; age-, oncogenic-, stress-, developmental- and inflammation-related senescence gene sets
# Experimental: To investigate the treatments' effects on gene expression patterns that are correlated with senescence in MSCs, MSCs were obtained from three young, healthy donors, and conditioned with brachial loading and E/E inhibitor. Following the treatments, RNA-seq analysis was performed on the cells, and the expression of several key gene sets related to various mechanisms of senescence in MSCs was evaluated. These gene sets were identified through a thorough investigation of the literature as key mediators of MSC senescence, and the expression pattern of each gene as it pertains to MSC senescence was documented (Zhou et al., 2020; Brandl et al., 2011; Turinetto et al., 2016; Ozkul & Galderisi, 2016; Fridman & Tainsky, 2008; Ki et al., 2014; Cakouros & Gronthos, 2019; Peffers et al., 2016). […] Next, a gene set enrichment analysis (GSEA) was performed on the RNA-seq data. […] In all three senescence-related gene sets, a reduction in senescence related genes with brachial mechanical loading was observed (FIG. 1).
# RNA Sequencing and Analysis. […] For sequencing, single reads of 50 base pairs were performed after poly-A mRNA capture using the Poly(A) Tailing Kit (Ambion) and Ultra II Directional RNA Library Prep Kit (NEB) to isolate mRNA and perform dUTP directional preparation of the mRNA library. […]
compound,measurement,setting,value
Dooku1,"p-γ-H2AX foci, treatment of static control cells vs. static treatment alone",MSCs from an aged donor,significantly more p-γ-H2AX foci than static treatment alone
CC(Nc1nc(N2CCCC2)nc2ccccc12)c1ccccc1 (stereo not drawn) [Importazole],"p-γ-H2AX foci, co-treatment with brachial loading vs. brachial loading alone","MSCs from an aged donor; 4 hours brachial loading, 40 μM Importazole",significantly more p-γ-H2AX foci than treatment with brachial loading alone
"CC(=O)N[C@@H](CS)C(=O)O [NAC, N-acetyl-L cysteine]",percentage of β-galactosidase+ cells,aged MSCs,significant reduction
same,SIRT6 expression (Western blotting),[1]; vs. static control,significant upregulation
same,DNA damage repair protein KU80 expression (Western blotting),[1],remained statistically unchanged
same,DNA synthesis (BrdU assay),MSCs from aged donors,not under brachial+NAC treatment; also recorded: a reduction of proliferative enhancement was observed
"GsMTx4: directly inhibits Piezo1 channel activity (Tocris 4912) (GCLEFWWKCNPNDDKCCRPKLKCSKLFKLCNFSF; disulfide 16-30, 2-17, 9-23; not fully specified (C-terminus); ends not checked; UniProt Q7YT39 47-80, looked up)","p-γ-H2AX foci, treatment of static control cells vs. static treatment alone",MSCs from an aged donor,significantly more p-γ-H2AX foci than static treatment alone
O=c1cc(-c2cccc3c2Sc2ccccc2S3)oc(N2CCOCC2)c1 [KU55933],SIRT6 expression (Western blotting),[1]; vs. static control,no significant change
same,DNA damage repair protein KU80 expression (Western blotting),[1],remained statistically unchanged
same,DNA synthesis (BrdU assay),MSCs from aged donors,significantly higher DNA synthesis
CC#CC(=O)Nc1cc2c(Nc3ccc(F)c(Cl)c3)ncnc2cn1 [E/E inhibitor],angiogenic activity / angiogenic properties of MSCs,MSCs from young donors [2]; listed as EGFR/ErbB-2/4 (E/E) inhibitor,enhanced angiogenic activity
same,angiogenic activity / angiogenic properties of MSCs,MSCs from young donors [2]; listed as EGFR/ErbB-2/4 (E/E),synergistically enhances the angiogenic properties
same,expression of antioxidant enzyme SOD1 (Western blotting),"[1]; brachial loading and E/E inhibitor treatments, aged donor one MSCs",significantly upregulated expression
same,"oxidative stress signaling protein expression, FOX0 transcription factors (Western blotting)","[1]; brachial+E/E inhibitor, 4 hours per day for 7 days, aged donor one MSCs, vs. static control","upregulation of FOX01, p-FOX01, FOX03a, p-FOX03a, and p-FOX04"
same,Sirtuin protein expression (Western blotting),"[1]; brachial+E/E treatment, donor one MSCs, in comparison to static control","upregulation of p-SIRT1, SIRT6, and SIRT7"
same,MSCs that expressed the markers for both endothelial cells and pericytes,MSCs from young donors [3],dramatic increase
same,senescence-related gene expression patterns (RNA-seq),[4],reversed the effects implicated by senescence
same,DNA synthesis (BrdU proliferation assay),"MSCs from aged donors; brachial loading 7.5% strain, 4 hours per day for 7 days + 1 μM E/E inhibitor, MSCs from three donors (68-92 years), relative to static control",increased DNA synthesis in two of three donor lines
